Tested on: 439559-082-T-J2-PDC spheroid viability
Experiment: Anticancer human tumor 439559-082-T-J2-PDC patient-derived colon adenocarcinoma cell line growth inhibition [POLQ]
Details: spheroids with HUVEC and MSC; for IC50: curve of first compound; for viability, T/C: stronger effect = lower value
Outline: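 Growth inhibition in 3D: complex spheroids (tumor PDC, HUVEC, MSC) treated with POLQ inhibitor combinations; where Cmax unknown, highest tested concentration 10 microM, except SN-38 at 1 microM.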

[1] = second compound 0.0316 µM, first compound 0.0316 µM
[2] = second compound 0.0316 µM, first compound 0.1 µM
[3] = second compound 0.0316 µM, first compound 0.316 µM
[4] = second compound 0.0316 µM, first compound 1 µM
[5] = second compound 0.0316 µM, first compound 3.16 µM
[6] = second compound 0.0316 µM, first compound 10 µM
[7] = second compound 0.1 µM, first compound 0.0316 µM
[8] = second compound 0.1 µM, first compound 0.1 µM
[9] = second compound 0.1 µM, first compound 0.316 µM
[10] = second compound 0.1 µM, first compound 1 µM
[11] = second compound 0.1 µM, first compound 3.16 µM
[12] = second compound 0.1 µM, first compound 10 µM
[13] = second compound 0.316 µM, first compound 0.0316 µM
[14] = second compound 0.316 µM, first compound 0.1 µM
[15] = second compound 0.316 µM, first compound 0.316 µM
[16] = second compound 0.316 µM, first compound 1 µM
[17] = second compound 0.316 µM, first compound 3.16 µM
[18] = second compound 0.316 µM, first compound 10 µM
[19] = second compound 1 µM, first compound 0.0316 µM
[20] = second compound 1 µM, first compound 0.1 µM
[21] = second compound 1 µM, first compound 0.316 µM
[22] = second compound 1 µM, first compound 1 µM
[23] = second compound 1 µM, first compound 3.16 µM
[24] = second compound 1 µM, first compound 10 µM
[25] = second compound 3.16 µM, first compound 0.0316 µM
[26] = second compound 3.16 µM, first compound 0.1 µM
[27] = second compound 3.16 µM, first compound 0.316 µM
[28] = second compound 3.16 µM, first compound 1 µM
[29] = second compound 3.16 µM, first compound 3.16 µM
[30] = second compound 3.16 µM, first compound 10 µM
[31] = second compound 10 µM, first compound 0.0316 µM
[32] = second compound 10 µM, first compound 0.1 µM
[33] = second compound 10 µM, first compound 0.316 µM
[34] = second compound 10 µM, first compound 1 µM
[35] = second compound 10 µM, first compound 3.16 µM
[36] = second compound 10 µM, first compound 10 µM
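Note: spheroids exposed to compounds for seven days before readout.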
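Throughout, for viability, T/C: 100% = DMSO vehicle control viability.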

`CC1COCCN1c1cc(C2(O)CC3CCC(C2)O3)c2cnn(-c3ccn[nH]3)c2n1` (stereo unspecified) + Cc1cccc(N(C)C(=O)C2C(O)CCN2c2nc(C)cc(C(F)(F)F)c2C#N)c1 was tested. Which IC50 (second compound 0.0316 µM) did it give?
The IC50 was 3.84 µM.

And the IC50 (second compound 0.1 µM)?
The IC50 was 5.32 µM.

What about the IC50 (second compound 0.316 µM) of the same compound?
Its IC50 is 3.18 µM.

What about the IC50 (second compound 1 µM) of the same compound?
Its IC50 is 4.98 µM.

What about the IC50 (second compound 3.16 µM) of the same compound?
Its IC50 is 2.87 µM.

What about the IC50 (second compound 10 µM) of the same compound?
Its IC50 is 2.93 µM.

And the viability, T/C [1]?
The viability, T/C was 96.4%.

What about the viability, T/C [2] of the same compound?
Its viability, T/C is 79.1%.

What about the viability, T/C [3] of the same compound?
The viability, T/C was 71.1%.

What about the viability, T/C [4] of the same compound?
The viability, T/C was 60.9%.

And the viability, T/C [5]?
The viability, T/C was 47.7%.

And the viability, T/C [6]?
Its viability, T/C is 46.4%.

And the viability, T/C [7]?
Its viability, T/C is 95.6%.

And the viability, T/C [8]?
Its viability, T/C is 86.1%.

What about the viability, T/C [9] of the same compound?
Its viability, T/C is 66%.

And the viability, T/C [10]?
Its viability, T/C is 60.1%.

What about the viability, T/C [11] of the same compound?
The viability, T/C was 49.3%.

What about the viability, T/C [12] of the same compound?
The viability, T/C was 49%.

What about the viability, T/C [13] of the same compound?
The viability, T/C was 94.5%.

And the viability, T/C [14]?
The viability, T/C was 79.4%.

And the viability, T/C [15]?
Its viability, T/C is 70.2%.

And the viability, T/C [16]?
Its viability, T/C is 57%.

What about the viability, T/C [17] of the same compound?
The viability, T/C was 48.4%.

And the viability, T/C [18]?
Its viability, T/C is 46.6%.

What about the viability, T/C [19] of the same compound?
The viability, T/C was 95.5%.

And the viability, T/C [20]?
Its viability, T/C is 78.4%.

And the viability, T/C [21]?
Its viability, T/C is 69.3%.

And the viability, T/C [22]?
Its viability, T/C is 61%.

What about the viability, T/C [23] of the same compound?
Its viability, T/C is 51.5%.

And the viability, T/C [24]?
Its viability, T/C is 46.8%.

What about the viability, T/C [25] of the same compound?
The viability, T/C was 91.3%.

And the viability, T/C [26]?
Its viability, T/C is 80.8%.

What about the viability, T/C [27] of the same compound?
Its viability, T/C is 66.7%.

And the viability, T/C [28]?
Its viability, T/C is 57%.

And the viability, T/C [29]?
Its viability, T/C is 48.9%.

What about the viability, T/C [30] of the same compound?
The viability, T/C was 46.1%.

And the viability, T/C [31]?
Its viability, T/C is 80.9%.

And the viability, T/C [32]?
The viability, T/C was 73.7%.

What about the viability, T/C [33] of the same compound?
Its viability, T/C is 65.5%.

And the viability, T/C [34]?
Its viability, T/C is 55.6%.

What about the viability, T/C [35] of the same compound?
The viability, T/C was 51.6%.

What about the viability, T/C [36] of the same compound?
The viability, T/C was 41.1%.

`O=C(Nc1ccc(O)c(NS(=O)(=O)c2ccc(F)cc2)c1)c1ccc(-c2ccccc2)cc1` + Cc1cccc(N(C)C(=O)C2C(O)CCN2c2nc(C)cc(C(F)(F)F)c2C#N)c1 was tested. Which IC50 (second compound 0.0316 µM) did it give?
The IC50 was > 10 µM.

And the IC50 (second compound 0.1 µM)?
Its IC50 is > 10 µM.

And the IC50 (second compound 0.316 µM)?
Its IC50 is > 10 µM.

What about the IC50 (second compound 1 µM) of the same compound?
Its IC50 is > 10 µM.

What about the IC50 (second compound 3.16 µM) of the same compound?
Its IC50 is > 10 µM.

What about the IC50 (second compound 10 µM) of the same compound?
The IC50 was > 10 µM.

What about the viability, T/C [1] of the same compound?
The viability, T/C was 92%.

What about the viability, T/C [2] of the same compound?
Its viability, T/C is 119%.

What about the viability, T/C [3] of the same compound?
The viability, T/C was 86.7%.

And the viability, T/C [4]?
Its viability, T/C is 97.3%.

And the viability, T/C [5]?
The viability, T/C was 103%.

What about the viability, T/C [6] of the same compound?
Its viability, T/C is 102%.

And the viability, T/C [7]?
The viability, T/C was 101%.

What about the viability, T/C [8] of the same compound?
Its viability, T/C is 106%.

And the viability, T/C [9]?
The viability, T/C was 100%.

What about the viability, T/C [10] of the same compound?
The viability, T/C was 98.6%.

And the viability, T/C [11]?
The viability, T/C was 107%.

And the viability, T/C [12]?
Its viability, T/C is 99.8%.

And the viability, T/C [13]?
The viability, T/C was 101%.

And the viability, T/C [14]?
The viability, T/C was 108%.

What about the viability, T/C [15] of the same compound?
The viability, T/C was 92.4%.

And the viability, T/C [16]?
The viability, T/C was 96.7%.

What about the viability, T/C [17] of the same compound?
Its viability, T/C is 105%.

And the viability, T/C [18]?
Its viability, T/C is 118%.

What about the viability, T/C [19] of the same compound?
The viability, T/C was 96.6%.

And the viability, T/C [20]?
Its viability, T/C is 93.6%.

What about the viability, T/C [21] of the same compound?
The viability, T/C was 98.4%.

What about the viability, T/C [22] of the same compound?
The viability, T/C was 97.7%.

And the viability, T/C [23]?
The viability, T/C was 101%.

What about the viability, T/C [24] of the same compound?
The viability, T/C was 115%.

And the viability, T/C [25]?
Its viability, T/C is 98.1%.

What about the viability, T/C [26] of the same compound?
Its viability, T/C is 93.7%.

And the viability, T/C [27]?
The viability, T/C was 85.7%.

What about the viability, T/C [28] of the same compound?
The viability, T/C was 104%.

And the viability, T/C [29]?
The viability, T/C was 109%.

And the viability, T/C [30]?
The viability, T/C was 99%.

And the viability, T/C [31]?
Its viability, T/C is 97.8%.

And the viability, T/C [32]?
The viability, T/C was 84.6%.

What about the viability, T/C [33] of the same compound?
Its viability, T/C is 107%.

What about the viability, T/C [34] of the same compound?
The viability, T/C was 86%.

What about the viability, T/C [35] of the same compound?
The viability, T/C was 104%.

And the viability, T/C [36]?
The viability, T/C was 109%.

With `COc1cccc2c1C(=O)c1c(O)c3c(c(O)c1C2=O)CC(O)(C(=O)CO)CC3OC1CC(N)C(O)C(C)O1` (stereo unspecified) + Nc1ccc(C#CCN(C(=O)Cc2ncc(C(F)(F)F)cc2C(F)(F)F)c2ccc(F)cc2)nn1 as the compound, how does the IC50 (second compound 0.0316 µM) read?
The IC50 was > 10 µM.

What about the IC50 (second compound 0.1 µM) of the same compound?
The IC50 was > 10 µM.

What about the IC50 (second compound 0.316 µM) of the same compound?
The IC50 was > 10 µM.

And the IC50 (second compound 1 µM)?
Its IC50 is > 10 µM.

And the IC50 (second compound 3.16 µM)?
Its IC50 is > 10 µM.

What about the IC50 (second compound 10 µM) of the same compound?
The IC50 was 7.09 µM.

What about the viability, T/C [1] of the same compound?
Its viability, T/C is 90.2%.

What about the viability, T/C [2] of the same compound?
The viability, T/C was 83.1%.

What about the viability, T/C [3] of the same compound?
Its viability, T/C is 79.2%.

What about the viability, T/C [4] of the same compound?
The viability, T/C was 67.8%.

And the viability, T/C [5]?
The viability, T/C was 60.7%.

What about the viability, T/C [6] of the same compound?
The viability, T/C was 60.5%.

And the viability, T/C [7]?
Its viability, T/C is 99.9%.

What about the viability, T/C [8] of the same compound?
The viability, T/C was 98.4%.

And the viability, T/C [9]?
Its viability, T/C is 79.8%.

And the viability, T/C [10]?
The viability, T/C was 66.5%.

What about the viability, T/C [11] of the same compound?
Its viability, T/C is 58.9%.

And the viability, T/C [12]?
Its viability, T/C is 65.1%.

And the viability, T/C [13]?
Its viability, T/C is 94.7%.

And the viability, T/C [14]?
Its viability, T/C is 82.5%.

And the viability, T/C [15]?
Its viability, T/C is 78.7%.

And the viability, T/C [16]?
The viability, T/C was 59.3%.

And the viability, T/C [17]?
Its viability, T/C is 58.1%.

What about the viability, T/C [18] of the same compound?
Its viability, T/C is 66.7%.

What about the viability, T/C [19] of the same compound?
Its viability, T/C is 103%.

And the viability, T/C [20]?
Its viability, T/C is 85.5%.

What about the viability, T/C [21] of the same compound?
The viability, T/C was 74.6%.

What about the viability, T/C [22] of the same compound?
The viability, T/C was 64%.

And the viability, T/C [23]?
Its viability, T/C is 57.2%.

And the viability, T/C [24]?
The viability, T/C was 55.8%.

What about the viability, T/C [25] of the same compound?
Its viability, T/C is 87.5%.

What about the viability, T/C [26] of the same compound?
Its viability, T/C is 83.2%.

And the viability, T/C [27]?
Its viability, T/C is 61.2%.

What about the viability, T/C [28] of the same compound?
Its viability, T/C is 62.4%.

And the viability, T/C [29]?
Its viability, T/C is 67.2%.

What about the viability, T/C [30] of the same compound?
The viability, T/C was 57.7%.

And the viability, T/C [31]?
The viability, T/C was 78.8%.

What about the viability, T/C [32] of the same compound?
The viability, T/C was 74.2%.

What about the viability, T/C [33] of the same compound?
The viability, T/C was 70.8%.

What about the viability, T/C [34] of the same compound?
Its viability, T/C is 59.7%.

What about the viability, T/C [35] of the same compound?
Its viability, T/C is 62.6%.

And the viability, T/C [36]?
The viability, T/C was 45.1%.
